Each block holds one molecule with its values, some of them ahead of it.
Key:
ASK1 [1] = assay: TNF-induced ASK1 activation in BAEC, in vitro kinase assay with GST-MKK4; type: cell-based, Bovine; details: Nac 1 mM pretreatment, TNF-α 10 ng/ml 15 min; n=3, p<0.01
Description: J Immunol. 159:3508-18 (1997)) using GST-MKK4 and GST-c-Jun (1-80) fusion protein as a substrate, respectively. Briefly, total 400 μg cell lysates were immunoprecipitated with 5 μg of antibody against ASK1 or JNK1 (Santa Cruz). The immunoprecipitates were mixed with 10 μg GST-MKK4 or GST-c-Jun (1-80) suspended in the kinase buffer (20 mM Hepes, pH 7.6, 20 mM MgCl2, 25 mM β-glycerophosphate, 100 μM sodium orthovanadate, 2 mM DTT, 20 μM ATP) containing 1 μl (10 μCi) of [γ-32P] ATP. The kinase assay was performed at 25° C. for 30 min. The reaction was terminated by the addition of Laemmli sample buffer and the phosphorylated GST-MKK4 or GST-c-Jun (1-80) was visualized by autoradiography.
TNF dissociates wild type Trx but not Trx-C32S or Trx-C35Sfroin ASK1 in vivo. Trx-C32S and Trx-C35S were examiner to determine whether they constitutively bind to ASK1 in vivo. Regulation of ASK1 by Trx was first examined to determine if such regulation is ROS-dependent in EC. BAEC were either untreated or treated with N-acetyl-cysteine (Nac, 1 mM) or vehicle for 60 min prior to TNF-α (10 ng/ml) stimulation for 15 min. TNF-induced ASK1 activation was measured by an in vitro kinase assay using GST-MKK4 (JNKK1) fusion protein as a substrate. TNF activated ASK1 in EC (FIG. 5A). […] Association of ASK1 with Trx was easily detected in untreated EC cells (FIG. 5B, Ctrl). […]

ASK1 [2] = assay: Association of Trx with ASK1 in vivo in BAEC (co-immunoprecipitation); type: binding, Bovine; details: endogenous proteins, IP anti-Trx / Western anti-ASK1; Nac pretreatment then TNF
Description: Immunoprecipitation and immunoblotting EC after various treatments were washed twice with cold PBS and lysed in 1.5 ml of cold lysis buffer (50 mM Tris-HC, pH 7.6, 150 mM NaCl, 0.1% Triton X-100, 0.75% Brij 96, 10 μg/ml aprotinin, 10 μg/ml leupeptin, 2 mM PMSF, 1 mM EDTA) for 20 min on ice. Protein concentrations were determined with a Bio-Rad kit. For immunoprecipitation to analyze protein interaction in vivo, 400 μg of cell lysate supematant were incubated with 5 μg of the first protein-specific antiserum (e.g. anti-Trx from Medical & Biological Laboratory) for 2 h with 50 μl of GammaBind plus Sepharose. Immune complexes were collected after each immunoprecipitation by centrifugation at 14,000× g for 10 min followed by 4 washes with lysis buffer. The immune complexes were subjected to Western blot with the second protein (e.g., ASK1)-specific antibody (Santa Cruz Biotech, Santa Cruz, Calif.). The chemiluminescence was detected using an ECL kit according to the instructions of the manufacturer (Amersham Life Science, Arlington Heights, Ill.). […]
TNF dissociates wild type Trx but not Trx-C32S or Trx-C35Sfroin ASK1 in vivo. […] TNF-induced ASK1 activation was measured by an in vitro kinase assay using GST-MKK4 (JNKK1) fusion protein as a substrate. […] Association of ASK1 with Trx was easily detected in untreated EC cells (FIG. 5B, Ctrl). […]

[3] = tested on: neonatal rat cardiomyocytes; details: 100 μM H2O2, 15 min post-treatment
adult rat cardiomyocytes = assay: Twitch amplitude of field-stimulated adult rat cardiac myocytes; details: 100 μM H2O2, field stimulated at 1 Hz, n=15
caspase 3 = assay: ASK1-induced caspase 3 activity assay in BAEC (Ac-DEVD-AMC substrate); type: cell-based, Bovine; details: 100 μM inhibitor in lysate assay
Description: Caspase 3 activity assay: Caspase 3 activity was measured with a Caspase 3 fluorescence kit (Sigma) according to the Manufacturer's protocol. Briefly, BAEC were harvested in Caspase 3 lysis buffer (25 mM Hepes, pH 7.4, 5 mM CHAPS, 5 mM DTT) and incubated on ice for 15-20 min followed by a centrifugation at 14,000× g for 10-15 min at 4° C. For each reaction, 5 μl (200 μg) of cell lysate was incubated with 200 μl of 16 μM Caspase 3 peptide substrate acetyl-ASP-Glu-Val-Asp-7 amido-4-methylcoumarin (Ac-DEVD-AMC) in the assay buffer (25 mM Hepes, pH 7.4, 5 mM EDTA, 0.1% CHAPS, 5 mM DTT) in the presence or absence of 100 μM Caspase 3 inhibitor (Ac-DEVD-CHO). The reaction was incubated in the dark for 1-1.5 h and fluorescence was measured in a fluorescence plate reader. The measured fluorescence was used as an arbitrary unit.
Then the effects. of Trx on ASK1-induced caspase 3 activation, a hallmark of the execution of apoptotic cell death (Green D R. Apoptotic pathways: paper wraps stone blunts scissors. Cell. 102:1-4 (2000); Hengartner MO. The biochemistry of apoptosis. Nature. 407:770-6 2000)) was examined. Caspase 3 activity was determined by an in vitro assay using peptide substrate acetyl-ASP-Glu-Val-Asp-7 amido-4-methylcounarin (Ac-DEVD-AMC). Overexpression of ASK1 in BAEC increased caspase 3 activity compared to the control cells (FIG. 6B).

Molecule: CC(=O)N[C@@H](CS)C(=O)O [Nac, N-acetyl-cysteine, reference compound]
inhibition of TNF-stimulated ASK1 activity (ASK1 [1]): 70%
TNF-induced dissociation of ASK1 from Trx (ASK1 [2]): prevented

Molecule: OO [Trx H2O2, Hydrogen peroxide]
spontaneous beating of neonatal cardiomyocytes [3]: completely inhibited
time to complete inhibition of twitch (adult rat cardiomyocytes): 2.38 ± 018 min

caspase 3 activity in presence of caspase 3 inhibitor (caspase 3): specifically inhibited
Molecule: Ac-DEVD-CHO [reference compound]

Reference: patent US20060148057A1, “Thioredoxin mutants and uses thereof” (priority 2002, published 2006)
